{"source": "patent US9951032B2", "about": "“Antibacterial compounds” (Janssen Sciences Ireland UC, priority 2012, dated 2018)", "key": {"[1]": {"tested_on": "Mycobacterium tuberculosis (strain H37RV)", "assay": "MIC90 determination for testing compounds against M. tuberculosis", "assay_type": "cell-based"}, "[2]": {"tested_on": "Mycobacterium tuberculosis (strain H37RV)", "assay": "Time kill assay (kill kinetics), broth dilution method", "assay_type": "cell-based"}}, "note": "Where two headings read alike, the source gives them in different places."}
{"smiles": "NNC(=O)c1ccncc1", "note": "[Isoniazid, reference compound]", "values": [{"measurement": "MIC90", "setting": "[1]; LV12076, 10% human serum", "result": 0.03, "unit": "µg/mL"}, {"measurement": "MIC90", "setting": "[1]; LV12086, 20% human serum", "result": 0.03, "unit": "µg/mL"}, {"measurement": "MIC90", "setting": "[1]; LV12086, no human serum", "result": 0.03, "unit": "µg/mL"}, {"measurement": "MIC90", "setting": "[1]; Mycobacterium tuberculosis, H37RV, LV12076, no human serum, read-out: MIC90", "result": 0.03, "unit": "µg/mL"}, {"measurement": "log CFU/ml", "setting": "[2]; 1 μg/ml, day 0", "result": 6.35, "unit": "log CFU/ml"}, {"measurement": "log CFU/ml", "setting": "[2]; 1 μg/ml, day 1", "result": 3.57, "unit": "log CFU/ml"}, {"measurement": "log CFU/ml", "setting": "[2]; 1 μg/ml, day 4", "result": 2.00, "unit": "log CFU/ml"}, {"measurement": "log CFU/ml", "setting": "[2]; 1 μg/ml, day 7", "result": 2.00, "unit": "log CFU/ml"}, {"measurement": "log CFU/ml", "setting": "[2]; 1 μg/ml, day 14", "result": 2.00, "unit": "log CFU/ml"}, {"measurement": "log CFU/ml", "setting": "[2]; 1 μg/ml, day 21", "result": 2.00, "unit": "log CFU/ml"}]}
{"smiles": "O=C(Nc1nc2cc(Cl)ccc2o1)NC12CC3CC(CC(C3)C1)C2", "values": [{"measurement": "melting point", "result": "> 250", "unit": "°C"}]}
{"smiles": "O=C(Nc1nc2c(F)cc(F)cc2s1)NC12CC3CC(CC(C3)C1)C2", "note": "[Compound 1]", "values": [{"measurement": "MIC90", "setting": "[1]; Mycobacterium tuberculosis, H37RV, LV12076, 10% human serum", "result": 1, "unit": "µg/mL"}, {"measurement": "MIC90", "setting": "[1]; Mycobacterium tuberculosis, H37RV, LV12086, 20% human serum", "result": 1, "unit": "µg/mL"}, {"measurement": "MIC90", "setting": "[1]; Mycobacterium tuberculosis, H37RV, LV12086, no human serum", "result": 0.25, "unit": "µg/mL"}, {"measurement": "MIC90", "setting": "[1]; Mycobacterium tuberculosis, H37RV, LV12076, no human serum", "result": 0.5, "unit": "µg/mL"}, {"measurement": "log CFU/ml", "setting": "[2]; 0.5 μg/ml, day 0", "result": 6.35, "unit": "log CFU/ml"}, {"measurement": "log CFU/ml", "setting": "[2]; 0.5 μg/ml, day 1", "result": 5.57, "unit": "log CFU/ml"}, {"measurement": "log CFU/ml", "setting": "[2]; 0.5 μg/ml, day 4", "result": 2.00, "unit": "log CFU/ml"}, {"measurement": "log CFU/ml", "setting": "[2]; 0.5 μg/ml, day 7", "result": 2.00, "unit": "log CFU/ml"}, {"measurement": "log CFU/ml", "setting": "[2]; 0.5 μg/ml, day 14", "result": 2.00, "unit": "log CFU/ml"}, {"measurement": "log CFU/ml", "setting": "[2]; 0.5 μg/ml, day 21", "result": 2.00, "unit": "log CFU/ml"}, {"measurement": "log CFU/ml", "setting": "[2]; 5 μg/ml, day 0", "result": 6.35, "unit": "log CFU/ml"}, {"measurement": "log CFU/ml", "setting": "[2]; 5 μg/ml, day 1", "result": 6.15, "unit": "log CFU/ml"}, {"measurement": "log CFU/ml", "setting": "[2]; 5 μg/ml, day 4", "result": 3.08, "unit": "log CFU/ml"}, {"measurement": "log CFU/ml", "setting": "[2]; 5 μg/ml, day 7", "result": 2.00, "unit": "log CFU/ml"}, {"measurement": "log CFU/ml", "setting": "[2]; 5 μg/ml, day 14", "result": 2.00, "unit": "log CFU/ml"}, {"measurement": "log CFU/ml", "setting": "[2]; 5 μg/ml, day 21", "result": 2.00, "unit": "log CFU/ml"}, {"measurement": "melting point", "result": "> 260", "unit": "°C"}]}
